IC50 data for 1 molecule are collected here from patent US20230141887A1, “CRYSTAL FORM OF DIAZASPIROPYRAN COMPOUND” (MEDSHINE DISCOVERY INC., priority 2020, published 2023).

This assay concerns the target T1, AXL (Homo sapiens, UniProt P30530).
T1 construct: purchased Promega
T1 sequence (P30530 26-894): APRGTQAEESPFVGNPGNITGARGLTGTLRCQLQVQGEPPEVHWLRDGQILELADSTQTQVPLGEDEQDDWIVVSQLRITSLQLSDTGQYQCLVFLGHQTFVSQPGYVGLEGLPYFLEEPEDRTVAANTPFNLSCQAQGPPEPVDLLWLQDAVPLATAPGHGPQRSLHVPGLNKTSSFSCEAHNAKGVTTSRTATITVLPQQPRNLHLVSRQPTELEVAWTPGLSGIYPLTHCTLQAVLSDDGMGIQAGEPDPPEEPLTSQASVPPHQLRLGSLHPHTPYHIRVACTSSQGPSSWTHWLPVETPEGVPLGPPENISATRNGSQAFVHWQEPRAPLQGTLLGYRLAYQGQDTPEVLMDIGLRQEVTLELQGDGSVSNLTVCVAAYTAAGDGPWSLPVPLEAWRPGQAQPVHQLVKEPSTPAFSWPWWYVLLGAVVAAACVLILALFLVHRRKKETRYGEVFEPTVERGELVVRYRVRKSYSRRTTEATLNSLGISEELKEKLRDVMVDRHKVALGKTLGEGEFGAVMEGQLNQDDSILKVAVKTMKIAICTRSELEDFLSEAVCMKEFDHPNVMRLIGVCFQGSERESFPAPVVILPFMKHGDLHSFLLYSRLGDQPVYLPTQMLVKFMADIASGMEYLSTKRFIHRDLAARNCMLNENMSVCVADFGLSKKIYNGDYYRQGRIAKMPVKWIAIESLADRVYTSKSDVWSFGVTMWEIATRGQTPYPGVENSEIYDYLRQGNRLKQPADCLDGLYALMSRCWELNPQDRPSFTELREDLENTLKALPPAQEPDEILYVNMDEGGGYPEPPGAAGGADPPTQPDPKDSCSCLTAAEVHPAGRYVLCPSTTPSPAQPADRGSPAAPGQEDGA
Nature of the assay: Assay of AXL inhibitory activity in vitro (Promega AXL Kinase Enzyme System, ADP-Glo). The class given is biochemical. As to conditions: 50 μmol/L ATP, 30° C., 60 minutes. The protocol:
AXL Kinase Enzyme System (kinase system) was purchased from Promega. Envision multi-label Analyzer (PerkinElmer).
The enzyme, substrate, ATP and inhibitors were diluted using the buffer solution in the kit.
The assay was carried out in duplicate. 1 μl of the inhibitors of each concentration gradient, 2 μl of the AXL enzyme (6 ng), and a 2 μl mixture of the substrate and ATP (50 μmol/L ATP, 0.2 μg/μL Axltide) were added to the microplate. […] After the reaction was completed, 5 μL of ADP-Glo reagent was added to each well. The system was further reacted at 30° C. for 40 minutes. After the reaction was completed, 10 μL of kinase detection reagent was added to each well and reacted at 30° C. for 30 minutes. The chemiluminescence was then read by the PerkinElmer Envision multi-label analyzer with an integration time of 0.5 seconds.
The original data was converted into an inhibition rate, and the IC50 value can be obtained by four-parameter curve fitting.
(ADP-Glo turns the ADP formed in a reaction into a luminescent signal.)

Where a name gives a salt, the structure may show the parent alone.

By IC50 is commonly meant the concentration that inhibits the measured activity by half. Higher therefore signals a need for much substance. Take `CCc1nc(C(N)=O)c(Nc2ccc(N3CCC4(CCN(C)CC4)CC3)c(OC)c2)nc1NC1CCOCC1` [Trifluoroacetate salt of compound A, reference compound]: the IC50 is 5.76 nM. This counts as single-digit nanomolar.
